Columns and labels:
Leishmania donovani [1] = assay: Antileishmanial activity against Leishmania donovani MHOM/IN/AG/83 amastigotes infected in BALB/c mouse peritoneal macrophages after 42 hrs by Giemsa staining-based microscopic analysis; format: functional, organism-based; settings: MHOM/IN/AG/83, 42 h
Leishmania donovani [2] = assay: Antileishmanial activity against Leishmania donovani MHOM/IN/AG/83 promastigotes after 48 hrs by MTT assay; format: functional, organism-based; settings: MHOM/IN/AG/83, 48 h
Peritoneal macrophage [3] = assay: Cytotoxicity against BALB/c mouse peritoneal macrophages after 48 hrs by MTT assay; format: cell-based
[4] = Therapeutic index, ratio of EC50 for BALB/c mouse peritoneal macrophages to EC50 for Leishmania donovani MHOM/IN/AG/83 amastigotes; format: toxicity; settings: read-out: Ratio EC50
Peritoneal macrophage [5] = assay: Induction of NO generation in Leishmania donovani MHOM/IN/AG/83 infected BALB/c mouse peritoneal macrophages assessed as nitrite levels after 48 hrs by Griess assay relative to untreated control; format: functional; also: test concentration or dose not given here
RAW264.7 = assay: Cytotoxicity against mouse RAW264.7 cells after 48 hrs by MTT assay; format: cell-based; settings: RAW264.7, 48 h
[6] = Therapeutic index, ratio of IC50 for mouse RAW264.7 cells to IC50 for Leishmania donovani MHOM/IN/AG/83 promastigotes; format: toxicity; settings: read-out: Ratio IC50

Work on `CCCCCCCCCCCCCCCCOP(=O)([O-])OCC[N+](C)(C)C` [MILTEFOSINE] yielded an EC50 (Leishmania donovani [1]) of 6.4 µM, an IC50 (Leishmania donovani [2]) of 10.4 µM and an EC50 (Peritoneal macrophage [3]) of 40.7 µM. The selectivity ratio [4] was 6.34, the Activity (Peritoneal macrophage [5]) was “Dose-dependent effect” and the Activity (Peritoneal macrophage [5]; record 2) was 26.01 µM. The IC50 (RAW264.7) was 44.8 µM and the selectivity ratio [6] was 4.3.
Compound `C=CCc1ccc(OC(=O)CCCCC)c(OC)c1` has an EC50 (Leishmania donovani [1]) of 101 µM, an IC50 (Leishmania donovani [2]) of 162 µM and an EC50 (Peritoneal macrophage [3]) of 477 µM. For the same compound, the selectivity ratio [4] was 4.76, the Activity (Peritoneal macrophage [5]) was “Dose-dependent effect” and the Activity (Peritoneal macrophage [5]; record 2) was 18.29 µM. The IC50 (RAW264.7) was 517 µM and the selectivity ratio [6] was 3.21.
With `C=CCc1ccc(OCCCC)c(OC)c1` [N-BUTYLEUGENOL] the EC50 (Leishmania donovani [1]) was 147 µM, the IC50 (Leishmania donovani [2]) was 309 µM and the EC50 (Peritoneal macrophage [3]) was 345 µM. For the same compound, the selectivity ratio [4] was 2.35, the Activity (Peritoneal macrophage [5]) was “Dose-dependent effect” and the Activity (Peritoneal macrophage [5]; record 2) was 14.23 µM. For the same compound, the IC50 (RAW264.7) was 329 µM and the selectivity ratio [6] was 1.07.
Compound `C=CCc1ccc(OC(=O)CC)c(OC)c1` has an EC50 (Leishmania donovani [1]) of 112 µM, an IC50 (Leishmania donovani [2]) of 146 µM and an EC50 (Peritoneal macrophage [3]) of 429 µM. The selectivity ratio [4] was 3.86, the Activity (Peritoneal macrophage [5]) was “Dose-dependent effect” and the Activity (Peritoneal macrophage [5]; record 2) was 12.19 µM. For the same compound, the IC50 (RAW264.7) was 448 µM and the selectivity ratio [6] was 3.1.
`C=CCc1ccc(OC(=O)c2c[nH]c3ccccc23)c(OC)c1` showed an EC50 (Leishmania donovani [1]) of 25.3 µM, an IC50 (Leishmania donovani [2]) of 60.5 µM and an EC50 (Peritoneal macrophage [3]) of 496 µM. For the same compound, the selectivity ratio [4] was 19.7, the Activity (Peritoneal macrophage [5]) was “Dose-dependent effect” and the Activity (Peritoneal macrophage [5]; record 2) was 26.24 µM. For the same compound, the IC50 (RAW264.7) was 485 µM and the selectivity ratio [6] was 8.11.
For `C=CCc1ccc(OC(=O)CCCC)c(OC)c1`, the EC50 (Leishmania donovani [1]) was 65.6 µM, the IC50 (Leishmania donovani [2]) was 106 µM and the EC50 (Peritoneal macrophage [3]) was 353 µM. For the same compound, the selectivity ratio [4] was 5.41, the Activity (Peritoneal macrophage [5]) was “Dose-dependent effect” and the Activity (Peritoneal macrophage [5]; record 2) was 24.39 µM. It also gave an IC50 (RAW264.7) of 368 µM and a selectivity ratio [6] of 3.49.
In the case of `C=CCc1ccc(OCCCCCCCCCCCCCCCC)c(OC)c1`, the EC50 (Leishmania donovani [1]) is reported as 17.1 µM, the IC50 (Leishmania donovani [2]) is reported as 58.1 µM and the EC50 (Peritoneal macrophage [3]) is reported as 251 µM. For the same compound, the selectivity ratio [4] was 14.5, the Activity (Peritoneal macrophage [5]) was “Dose-dependent effect” and the Activity (Peritoneal macrophage [5]; record 2) was 29.1 µM. For the same compound, the IC50 (RAW264.7) was 292 µM and the selectivity ratio [6] was 5.02.
`C=CCc1ccc(OC(=O)CCCCCCCCCCCCCCC)c(OC)c1` gave an EC50 (Leishmania donovani [1]) of 8.54 µM, an IC50 (Leishmania donovani [2]) of 43.3 µM and an EC50 (Peritoneal macrophage [3]) of 357 µM. For the same compound, the selectivity ratio [4] was 42.2, the Activity (Peritoneal macrophage [5]) was “Dose-dependent effect” and the Activity (Peritoneal macrophage [5]; record 2) was 39.42 µM. For the same compound, the IC50 (RAW264.7) was 374 µM and the selectivity ratio [6] was 8.56.
Work on `C=CCc1ccc(OC(=O)CCCCCCCCC)c(OC)c1` yielded an EC50 (Leishmania donovani [1]) of 33.1 µM, an IC50 (Leishmania donovani [2]) of 67.5 µM and an EC50 (Peritoneal macrophage [3]) of 404 µM. The selectivity ratio [4] was 12.4, the Activity (Peritoneal macrophage [5]) was “Dose-dependent effect” and the Activity (Peritoneal macrophage [5]; record 2) was 27.31 µM. It also gave an IC50 (RAW264.7) of 373 µM and a selectivity ratio [6] of 5.66.
In the case of `C=CCc1ccc(OC)c(OC)c1` [METHYLEUGENOL], the EC50 (Leishmania donovani [1]) is reported as 203 µM, the IC50 (Leishmania donovani [2]) is reported as 475 µM and the EC50 (Peritoneal macrophage [3]) is reported as 485 µM. For the same compound, the selectivity ratio [4] was 2.39, the Activity (Peritoneal macrophage [5]) was “Dose-dependent effect” and the Activity (Peritoneal macrophage [5]; record 2) was 10.82 µM. For the same compound, the IC50 (RAW264.7) was 517 µM and the selectivity ratio [6] was 1.09.
Work on `C=CCOc1ccc(CC=C)cc1OC` [ALLYLEUGENOL] yielded an EC50 (Leishmania donovani [1]) of 120 µM, an IC50 (Leishmania donovani [2]) of 238 µM and an EC50 (Peritoneal macrophage [3]) of 353 µM. The selectivity ratio [4] was 2.95, the Activity (Peritoneal macrophage [5]) was “Dose-dependent effect” and the Activity (Peritoneal macrophage [5]; record 2) was 13.86 µM. The IC50 (RAW264.7) was 385 µM and the selectivity ratio [6] was 1.64.
For `C=CCc1ccc(OC(=O)CCC)c(OC)c1`, the EC50 (Leishmania donovani [1]) was 72.1 µM, the IC50 (Leishmania donovani [2]) was 64.5 µM and the EC50 (Peritoneal macrophage [3]) was 191 µM. The selectivity ratio [4] was 2.71, the Activity (Peritoneal macrophage [5]) was “Dose-dependent effect” and the Activity (Peritoneal macrophage [5]; record 2) was 23.08 µM. For the same compound, the IC50 (RAW264.7) was 233 µM and the selectivity ratio [6] was 3.61.
With `C=CCc1ccc(OCCCCCCCCCC)c(OC)c1` the EC50 (Leishmania donovani [1]) was 29 µM, the IC50 (Leishmania donovani [2]) was 49.9 µM and the EC50 (Peritoneal macrophage [3]) was 272 µM. For the same compound, the selectivity ratio [4] was 9.67, the Activity (Peritoneal macrophage [5]) was “Dose-dependent effect” and the Activity (Peritoneal macrophage [5]; record 2) was 26.17 µM. For the same compound, the IC50 (RAW264.7) was 412 µM and the selectivity ratio [6] was 8.61.
`C=CCc1ccc(OCCCCC)c(OC)c1` gave an EC50 (Leishmania donovani [1]) of 83.4 µM, an IC50 (Leishmania donovani [2]) of 90.8 µM and an EC50 (Peritoneal macrophage [3]) of 164 µM. The selectivity ratio [4] was 1.97, the Activity (Peritoneal macrophage [5]) was “Dose-dependent effect” and the Activity (Peritoneal macrophage [5]; record 2) was 12.95 µM. The IC50 (RAW264.7) was 178 µM and the selectivity ratio [6] was 1.96.
Work on `C=CCc1ccc(OCCCCCC)c(OC)c1` yielded an EC50 (Leishmania donovani [1]) of 36.4 µM, an IC50 (Leishmania donovani [2]) of 80.3 µM and an EC50 (Peritoneal macrophage [3]) of 272 µM. For the same compound, the selectivity ratio [4] was 7.6, the Activity (Peritoneal macrophage [5]) was “Dose-dependent effect” and the Activity (Peritoneal macrophage [5]; record 2) was 20.81 µM. The IC50 (RAW264.7) was 292 µM and the selectivity ratio [6] was 3.63.
In the case of `C=CCc1ccc(OCCCCCCCCC)c(OC)c1`, the EC50 (Leishmania donovani [1]) is reported as 51.8 µM, the IC50 (Leishmania donovani [2]) is reported as 81.9 µM and the EC50 (Peritoneal macrophage [3]) is reported as 326 µM. The selectivity ratio [4] was 6.47, the Activity (Peritoneal macrophage [5]) was “Dose-dependent effect” and the Activity (Peritoneal macrophage [5]; record 2) was 25.19 µM. It also gave an IC50 (RAW264.7) of 332 µM and a selectivity ratio [6] of 4.27.
